Drawing on patent US10202378B2, “Therapeutic compounds and uses thereof” (GENENTECH, INC., priority 2015, dated 2019), this text covers IC50 for 22 compounds.

The target in one test is TAF1-BD2 (Homo sapiens, UniProt P21675). The experiment in a line: TAF1-BD2 TR-FRET Binding Assay. As to conditions: read-out: TAF1-BD2 HTRF IC50. As for the experimental part:
IC50 Measurements for Inhibitors Using TAF1-BD2 TR-FRET Binding Assay
His/Flag epitope tagged TAF1-BD21504-1635 was cloned, expressed, and purified to homogeneity. TAF1-BD2 binding and inhibition was assessed by monitoring the engagement of a biotinylated small molecule compound 1000 with the target using the TR-FRET assay technology (Perkin-Elmer). Specifically, in a 384 well ProxiPlate, TAF1-BD2 (0.012 uM final) in 50 mM HEPES (pH 7.5; final), 50 mM NaCl (final), 1 mM TCEP (final), 0.1 mg/mL BSA (final), and 0.069 mM Brij-35 (final) was added either in the presence of DMSO (final 0.2% DMSO) or compound dilution series in DMSO. After a 10 minute incubation at room temperature, biotin-ligand (0.04 uM final) was added. After 10 minutes incubation at room temperature, a mixture Eu-W1024 Anti-6×His antibody (Perkin Elmer AD0110) and SureLight™ Streptavidin-Allophycocyanin (SA-APC, Perkin Elmer CR130-100) were added to a final concentration of 0.2 nM antibody and 0.025 uM SA-APC, respectively. After forty minutes of equilibration at room temperature, the plates were read on an Envision instrument and IC50s calculated using a four parameter logistic model (XLFIT).

In the next test the target is TAF1-BD1 (Homo sapiens, UniProt P21675). The test is described as follows: TAF1-BD1 TR-FRET Binding Assay. To be noted: read-out: TAF1-BD1 HTRF IC50. As for the experimental part:
IC50 Measurements for Inhibitors Using TAF1-BD1 TR-FRET Binding Assay
His/Flag epitope tagged TAF1-BD11381-1497 was cloned, expressed, and purified to homogeneity. TAF1-BD binding and inhibition was assessed by monitoring the engagement of a biotinylated small molecule compound 1000 with the target using the TR-FRET assay technology (Perkin-Elmer). Specifically, in a 384 well ProxiPlate, TAF1-BDI (0.08 uM final) in 50 mM HEPES (pH 7.5; final), 50 mM NaCl (final), 1 mM TCEP (final), 0.1 mg/mL BSA (final), and 0.069 mM Brij-35 (final) was added either in the presence of DMSO (final 0.2% DMSO) or compound dilution series in DMSO. After a 10 minute incubation at room temperature, biotin-ligand (0.08 uM final) was added. After 10 minutes incubation at room temperature, a mixture Eu-W1024 Anti-6×His antibody (Perkin Elmer ADO 110) and SureLight™ Streptavidin-Allophycocyanin (SA-APC, Perkin Elmer CR130-100) were added to final concentrations of 0.2 nM antibody and 0.05 uM SA-APC, respectively. After forty minutes of equilibration at room temperature, the plates were read on an Envision instrument and IC50s calculated using a four parameter logistic model (XLFIT).
Background: TR-FRET usually uses a lanthanide donor and a delayed reading to cut background.

In general, IC50 refers to the concentration that inhibits the measured activity by half. “3-(hydroxymethyl)-4-(3-hydroxy-3-methyl-but-1-ynyl)-2,6-dimethyl-1H-pyrrolo[2,3-c]pyridin-7-one [Example 201]”: the IC50 on TAF1-BD2 amounted to 2250 nM; on TAF1-BD1 it was 6050 nM.
Consider `CCOC(=O)c1c(C)[nH]c2c(=O)n(C)cc(C#CC(O)(c3ccccc3)C(F)(F)F)c12` (single isomer, unassigned) [Example 91a, ethyl 2,6-dimethyl-7-oxo-4-(4,4,4-trifluoro-3-hydroxy-3-phenyl-but-1-ynyl)-1H-pyrrolo[2,3-c]pyridine-3-carboxylate], for which the IC50 at TAF1-BD2 was 206 nM; at TAF1-BD1 it was 749 nM.
On to `CCOC(=O)c1c(C)[nH]c2c(=O)n(C)cc(C#CC(O)(c3ccccc3)C(F)(F)F)c12` (single isomer, unassigned) [Example 91b, ethyl 2,6-dimethyl-7-oxo-4-(4,4,4-trifluoro-3-hydroxy-3-phenyl-but-1-ynyl)-1H-pyrrolo[2,3-c]pyridine-3-carboxylate], for which the IC50 was 42.2 nM on TAF1-BD2 and 184 nM at TAF1-BD1.
As to `CCOC(=O)c1c(C)[nH]c2c(=O)n(C)cc(C#CC(C)(O)C3CC3)c12` (single isomer, unassigned) [Example 92a, ethyl 4-(3-cyclopropyl-3-hydroxy-but-1-ynyl)-2,6-dimethyl-7-oxo-1H-pyrrolo[2,3-c]pyridine-3-carboxylate], the IC50 at TAF1-BD2 was 33.2 nM; on TAF1-BD1, 154 nM.
For `CCOC(=O)c1c(C)[nH]c2c(=O)n(C)cc(C#CC(C)(O)C3CC3)c12` (single isomer, unassigned) [Example 92b, ethyl 4-(3-cyclopropyl-3-hydroxy-but-1-ynyl)-2,6-dimethyl-7-oxo-1H-pyrrolo[2,3-c]pyridine-3-carboxylate] the same measures were 230 nM and 1090 nM.
For `CCOC(=O)c1c(C)[nH]c2c(=O)n(C)cc(C#CC(O)(c3ccccc3)C(F)F)c12` (single isomer, unassigned) [Example 93a, ethyl 4-(4,4-difluoro-3-hydroxy-3-phenyl-but-1-ynyl)-2,6-dimethyl-7-oxo-1H-pyrrolo[2,3-c]pyridine-3-carboxylate] the same measures were 65.5 nM and 599 nM.
For `CCOC(=O)c1c(C)[nH]c2c(=O)n(C)cc(C#CC(O)(c3ccccc3)C(F)F)c12` (single isomer, unassigned) [Example 93b, ethyl 4-(4,4-difluoro-3-hydroxy-3-phenyl-but-1-ynyl)-2,6-dimethyl-7-oxo-1H-pyrrolo[2,3-c]pyridine-3-carboxylate] the same measures were 21.4 nM and 176 nM.
As to `Cc1[nH]c2c(=O)n(C)cc(C#CC(C)(O)C3CC3)c2c1-c1nnc(C2CCOC2)o1` (single isomer, unassigned) [Example 96a, 4-(3-cyclopropyl-3-hydroxy-but-1-ynyl)-2,6-dimethyl-3-(5-tetrahydrofuran-3-yl-1,3,4-oxadiazol-2-yl)-1H-pyrrolo[2,3-c]pyridin-7-one], the IC50 on TAF1-BD2 stood at 40.7 nM; on TAF1-BD1 it was 182 nM.
For `Cc1[nH]c2c(=O)n(C)cc(C#CC(C)(O)C3CC3)c2c1-c1nnc(C2CCOC2)o1` (single isomer, unassigned) [Example 96b, 4-(3-cyclopropyl-3-hydroxy-but-1-ynyl)-2,6-dimethyl-3-(5-tetrahydrofuran-3-yl-1,3,4-oxadiazol-2-yl)-1H-pyrrolo[2,3-c]pyridin-7-one] the same measures were 260 nM and 1140 nM.
As to `Cc1[nH]c2c(=O)n(C)cc(C#CC(C)(O)C3CC3)c2c1-c1nnc(C(C)(C)C)o1` (single isomer, unassigned) [Example 98a, 3-(5-tert-butyl-1,3,4-oxadiazol-2-yl)-4-(3-cyclopropyl-3-hydroxy-but-1-ynyl)-2,6-dimethyl-1H-pyrrolo[2,3-c]pyridin-7-one], the IC50 at TAF1-BD2 came to 227 nM; at TAF1-BD1 it was 728 nM.
Consider `Cc1[nH]c2c(=O)n(C)cc(C#CC(C)(O)C3CC3)c2c1-c1nnc(C(C)(C)C)o1` (single isomer, unassigned) [Example 98b, 3-(5-tert-butyl-1,3,4-oxadiazol-2-yl)-4-(3-cyclopropyl-3-hydroxy-but-1-ynyl)-2,6-dimethyl-1H-pyrrolo[2,3-c]pyridin-7-one], for which the IC50 at TAF1-BD2 stood at 33.9 nM; on TAF1-BD1, 108 nM.
For the compound `CCOC(=O)c1c(C)[nH]c2c(=O)n(C)cc(C#CC3(O)CCc4cccnc43)c12` (single isomer, unassigned) [Example 99a, ethyl 4-[2-(7-hydroxy-5,6-dihydrocyclopenta[b]pyridin-7-yl)ethynyl]-2,6-dimethyl-7-oxo-1H-pyrrolo[2,3-c]pyridine-3-carboxylate], the IC50 came to 1180 nM on TAF1-BD2 and 2930 nM at TAF1-BD1.
With `CCOC(=O)c1c(C)[nH]c2c(=O)n(C)cc(C#CC3(O)CCc4cccnc43)c12` (single isomer, unassigned) [Example 99b, ethyl 4-[2-(7-hydroxy-5,6-dihydrocyclopenta[b]pyridin-7-yl)ethynyl]-2,6-dimethyl-7-oxo-1H-pyrrolo[2,3-c]pyridine-3-carboxylate], the IC50 on TAF1-BD2 stood at 84.4 nM; on TAF1-BD1 it was 881 nM.
Consider `CCOC(=O)c1c(C)[nH]c2c(=O)n(C)cc(C#C[C@@H]3CCC[C@H]3O)c12` (stereo in doubt) [Example 83, ethyl 4-[2-(2-hydroxycyclopentyl)ethynyl]-2,6-dimethyl-7-oxo-1H-pyrrolo[2,3-c]pyridine-3-carboxylate], for which the IC50 on TAF1-BD2 came out at 302 nM; at TAF1-BD1 it was 2590 nM.
For `CCOC(=O)c1c(C)[nH]c2c(=O)n(C)cc(C#C[C@@H]3CCCC[C@H]3O)c12` (stereo in doubt) [Example 84, ethyl 4-[2-(2-hydroxycyclohexyl)ethynyl]-2,6-dimethyl-7-oxo-1H-pyrrolo[2,3-c]pyridine-3-carboxylate], the IC50 is 187 nM on TAF1-BD2 and 2000 nM at TAF1-BD1.
Take `CCOC(=O)c1c(C)[nH]c2c(=O)n(C)cc(C#CC(O)(c3cccnc3)C(F)(F)F)c12` (centres unmarked) [Example 1, ethyl 2,6-dimethyl-7-oxo-4-(4,4,4-trifluoro-3-hydroxy-3-(3-pyridyl)but-1-ynyl)-1H-pyrrolo[2,3-c]pyridine-3-carboxylate]: the IC50 on TAF1-BD2 stood at 80.4 nM; on TAF1-BD1 it was 312 nM.
As to `CCOC(=O)c1c(C)[nH]c2c(=O)n(C)cc(C#CC(O)(c3cccc(N)c3)C(F)(F)F)c12` (centres unmarked) [Example 2, ethyl 4-[3-(3-aminophenyl)-4,4,4-trifluoro-3-hydroxy-but-1-ynyl]-2,6-dimethyl-7-oxo-1H-pyrrolo[2,3-c]pyridine-3-carboxylate], the IC50 at TAF1-BD2 was determined as 45.3 nM; on TAF1-BD1, 249 nM.
On to `CCOC(=O)c1c(C)[nH]c2c(=O)n(C)cc(C#C[C@](C)(O)c3ncccn3)c12` [Example 5, ethyl 4-[(3S)-3-hydroxy-3-pyrimidin-2-yl-but-1-ynyl]-2,6-dimethyl-7-oxo-1H-pyrrolo[2,3-c]pyridine-3-carboxylate], for which the IC50 at TAF1-BD2 was found to be 1630 nM; on TAF1-BD1, 8350 nM.
Regarding `CCOC(=O)c1c(C)[nH]c2c(=O)n(C)cc(C#C[C@@](C)(O)c3ncccn3)c12` [Example 6, ethyl 4-[(3R)-3-hydroxy-3-pyrimidin-2-yl-but-1-ynyl]-2,6-dimethyl-7-oxo-1H-pyrrolo[2,3-c]pyridine-3-carboxylate], the IC50 on TAF1-BD2 was determined as 147 nM; at TAF1-BD1, 989 nM.
For the compound `CCOC(=O)c1c(C)[nH]c2c(=O)n(C)cc(C#CC3(O)CCN(CC)CC3)c12` [Example 8, ethyl 4-[2-(1-ethyl-4-hydroxy-4-piperidyl)ethynyl]-2,6-dimethyl-7-oxo-1H-pyrrolo[2,3-c]pyridine-3-carboxylate], the IC50 at TAF1-BD2 turned out to be 425 nM; at TAF1-BD1, 7850 nM.
For `CCOC(=O)c1c(C)[nH]c2c(=O)n(C)cc(C#CC3(O)CCN(C)CC3)c12` [Example 9, ethyl 4-[2-(4-hydroxy-1-methyl-4-piperidyl)ethynyl]-2,6-dimethyl-7-oxo-1H-pyrrolo[2,3-c]pyridine-3-carboxylate] the same measures were 815 nM and 14500 nM.
For `CCOC(=O)c1c(C)[nH]c2c(=O)n(C)cc(C#CC3(O)CCNCC3)c12` [Example 12, ethyl 4-[2-(4-hydroxy-4-piperidyl)ethynyl]-2,6-dimethyl-7-oxo-1H-pyrrolo[2,3-c]pyridine-3-carboxylate] the same measures were 429 nM and 757 nM.
